We go through 19 molecules from patent US20250129092A1, “COMPOUNDS USEFUL IN MODULATION OF AHR SIGNALLING” (JAGUAHR THERAPEUTICS PTE LTD, priority 2021, published 2025).

SMILES strings stand for the structures. A value given as a limit tells only on which side of the number the result lay.

Assay [1] concerns the target T1, AhR (Homo sapiens, UniProt P35869).
T1 sequence (P35869 11-848): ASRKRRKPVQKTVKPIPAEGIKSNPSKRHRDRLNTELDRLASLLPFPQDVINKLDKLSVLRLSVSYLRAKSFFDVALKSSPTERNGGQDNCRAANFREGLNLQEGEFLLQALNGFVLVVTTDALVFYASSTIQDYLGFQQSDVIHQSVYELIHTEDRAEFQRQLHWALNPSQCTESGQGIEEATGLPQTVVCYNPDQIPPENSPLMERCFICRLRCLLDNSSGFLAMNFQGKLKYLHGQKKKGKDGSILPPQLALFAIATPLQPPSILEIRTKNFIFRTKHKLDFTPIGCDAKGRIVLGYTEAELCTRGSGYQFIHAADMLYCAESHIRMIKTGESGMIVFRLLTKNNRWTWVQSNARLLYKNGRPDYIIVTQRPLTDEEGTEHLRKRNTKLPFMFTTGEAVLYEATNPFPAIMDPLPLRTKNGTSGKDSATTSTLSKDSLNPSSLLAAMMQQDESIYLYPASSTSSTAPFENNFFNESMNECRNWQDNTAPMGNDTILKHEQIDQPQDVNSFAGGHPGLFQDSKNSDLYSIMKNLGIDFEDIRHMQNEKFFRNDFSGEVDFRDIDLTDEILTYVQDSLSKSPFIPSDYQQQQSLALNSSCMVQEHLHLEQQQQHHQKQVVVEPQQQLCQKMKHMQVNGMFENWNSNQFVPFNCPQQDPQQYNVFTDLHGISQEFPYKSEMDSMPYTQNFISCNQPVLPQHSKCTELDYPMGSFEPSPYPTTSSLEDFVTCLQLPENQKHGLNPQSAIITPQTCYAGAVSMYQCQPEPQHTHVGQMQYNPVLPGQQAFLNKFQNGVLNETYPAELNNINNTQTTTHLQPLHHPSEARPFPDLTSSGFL
As to the kind of experiment: AhR antagonism in human PBMCs - inhibition of IL-22 release. Also noted: endogenous in cells. The assay is classed as cell-based. The following applies: human PBMCs activated with CD3/CD28 agonist mixture, 72 hrs, IL-22 ELISA; average; read-out: hPBMC Inhibition of CD3/CD28 induced IL-22 release: av. pIC50 (converted). An excerpt:
In Vitro Assay 3: AhR Antagonism in Human Peripheral Blood Mononuclear Cells (PBMCs)-Inhibition of Interleukin-22 (IL-22) Release.
PBMCs were isolated from human peripheral blood using Lymphoprep™ and diluted to 1×10^6 cells per ml in RPMI media containing […] foetal bovine serum, 1% penicillin-streptomycin and 1% non essential amino acids. PBMCs were subsequently activated with 1p1 per 100,000 cells of a CD3/CD28 agonist mixture (human T Cell TransAct™ (Miltenyi Biotec)) and then plated at 100,000 cells per well in a round bottom 96 well tissue culture plate. One hour after stimulation seven concentrations of each test compound or vehicle (final [DMSO] 0.2%) were added. The plates were then placed in an incubator at 37° C., ≥85% humidity, 5% […] for 72 hrs before the media was removed and stored at −20° C. until cytokine analysis. IL-22 was measured using human IL-22 DuoSet ELISA (R&D systems) according to the manufacturer's instructions.

Assay [2] has as its target T1, AhR. As to the kind of experiment: AhR antagonism in U937 cells (Promega P450-Glo assay). It counts as cell-based. Also noted: endogenous in cells; host or cells: U937 cells. Particulars: CYP1A1 activity readout (Luciferin-CEE), head names VAF347, average, read-out: U937 Antagonist pIC50-VAF347: av. pIC50 (converted). As to the method:
In Vitro Assay 1: AhR Antagonism in U937 Cells (Promega P450-Glo™ Assay)
AhR antagonism was assessed in LJ937 cells (myeloid lineage cell line derived from a human histiocytic lymphoma). Ligand binds the AhR in the cytoplasm, and the AhR-ligand complex translocates to the nucleus and forms a heterodimer with AhR nuclear translocator (Arnt). This complex binds the xenobiotic response element (XRE) in the 5′ upstream region of the CYP1A1 promoter, enhancing CYP1A1 expression. CYP1A1 activity is subsequently determined by assessing the conversion of Luciferin-CEE to luciferin, which in turn reacts with luciferase to produce light. The amount of light produced is directly proportional to cytochrome P450 activity. U937 cells in Ultraculture serum free media (Lonza) were plated at 100,000 cells per well in a round bottom 96 well tissue culture plate. […] The plates were then placed in an incubator at 37° C., ≥85% humidity, 5% CO2 for 24 hrs. After aspiration of the supernatant the CYP1A1 substrate Luciferin-CEE ([Final] 83 μM) was added and incubated for 3 hrs before the reaction was stopped by adding luciferin detection reagent and luminescence was read after 20 minutes.

As to `Cc1ccc(-c2nc3c(c(NCCc4c[nH]c5cc(F)ccc45)n2)OCCN3)cn1` [Example 20, N-[2-(6-fluoro-1H-indol-3-yl)ethyl]-2-(6-methyl-3-pyridyl)-7,8-dihydro-6H-pyrimido[5,4-b][1,4]oxazin-4-amine], the IC50 at AhR [1] was 43.7 nM; on AhR [2], 91.2 nM.

Consider `Cc1ncc(-c2nc(NCCc3c[nH]c4ccccc34)c3c(n2)N(C2COC2)CCO3)s1` [Example 33, N-[2-(1H-indol-3-yl)ethyl]-2-(2-methylthiazol-5-yl)-8-(oxetan-3-yl)-6,7-dihydropyrimido[5,4-b][1,4]oxazin-4-amine], for which the IC50 on AhR [1] is 13.5 nM; on AhR [2], 14.1 nM.

For `FC(F)Oc1ncccc1-c1nc2c(c(NCCc3c[nH]c4ccccc34)n1)OCCN2` [Example 22, 2-[2-(difluoromethoxy)-3-pyridyl]-N-[2-(1H-indol-3-yl)ethyl]-7,8-dihydro-6H-pyrimido[5,4-b][1,4]oxazin-4-amine], the IC50 at AhR [1] was more than 2000 nM; at AhR [2], 123 nM.

For `C[C@@H]1CNc2nc(-c3cncc(F)c3)nc(NCCc3c[nH]c4ccccc34)c2O1` [Example 30, (6R)-2-(5-fluoro-3-pyridyl)-N-[2-(1H-indol-3-yl)ethyl]-6-methyl-7,8-dihydro-6H-pyrimido[5,4-b][1,4]oxazin-4-amine], the IC50 on AhR [1] is 3.98 nM; on AhR [2] it was 5.5 nM.

Consider `Fc1cncc(-c2nc(NCCc3c[nH]c4ccccc34)c3c(n2)N[C@@H](C(F)(F)F)CO3)c1` [Example 32, (7R)-2-(5-fluoro-3-pyridyl)-N-[2-(1H-indol-3-yl)ethyl]-7-(trifluoromethyl)-7,8-dihydro-6H-pyrimido[5,4-b][1,4]oxazin-4-amine], for which the IC50 at AhR [1] was 14.5 nM; at AhR [2], 2.51 nM.

Turning to `Cc1ncc(-c2nc(N[C@@H]3CCc4[nH]c5ccccc5c4C3)c3c(n2)N(CCO)CCO3)s1` [Example 37, 2-[2-(2-methylthiazol-5-yl)-4-[[(3R)-2,3,4,9-tetrahydro-1H-carbazol-3-yl]amino]-6,7-dihydropyrimido[5,4-b][1,4]oxazin-8-yl]ethanol], the IC50 on AhR [1] was 123 nM; at AhR [2], 251 nM.

With `COC[C@@H]1COc2c(NCCc3c[nH]c4ccccc34)nc(-c3ccc(F)cc3)nc2N1` [Example 56, (7R)-2-(4-fluorophenyl)-N-[2-(1H-indol-3-yl)ethyl]-7-(methoxymethyl)-7,8-dihydro-6H-pyrimido[5,4-b][1,4]oxazin-4-amine], the IC50 is 18.6 nM at AhR [1] and 12 nM at AhR [2].

Turning to `Fc1cncc(-c2nc3c(c(N[C@@H]4CCc5[nH]c6ccccc6c5C4)n2)OCCN3)c1` [Example 4, 2-(5-fluoro-3-pyridyl)-N-[(3R)-2,3,4,9-tetrahydro-1H-carbazol-3-yl]-7,8-dihydro-6H-pyrimido[5,4-b][1,4]oxazin-4-amine], the IC50 on AhR [1] is 83.2 nM; at AhR [2], 16.2 nM.

With `CC1COc2c(NCCc3c[nH]c4ccccc34)nc(-c3cncc(F)c3)nc2N1` (centres unmarked) [Example 5, 2-(5-fluoro-3-pyridyl)-N-[2-(1H-indol-3-yl)ethyl]-7-methyl-7,8-dihydro-6H-pyrimido[5,4-b][1,4]oxazin-4-amine], the values for the IC50 on AhR [1] and at AhR [2] were 0.955 nM and 1.86 nM, respectively.

For the molecule `C[C@H]1COc2c(NCCc3c[nH]c4ccccc34)nc(-c3cncc(F)c3)nc2N1` [Example 8, (7S)-2-(5-fluoro-3-pyridyl)-N-[2-(1H-indol-3-yl)ethyl]-7-methyl-7,8-dihydro-6H-pyrimido[5,4-b][1,4]oxazin-4-amine], the IC50 on AhR [1] was 1.05 nM; at AhR [2] it was 1.12 nM.

Consider `Fc1cc(F)cc(-c2nc3c(c(NCCc4c[nH]c5ccccc45)n2)OCCN3)c1` [Example 3, 2-(3,5-difluorophenyl)-N-[2-(1H-indol-3-yl)ethyl]-7,8-dihydro-6H-pyrimido[5,4-b][1,4]oxazin-4-amine], for which the IC50 was 3.98 nM on AhR [1] and 3.55 nM on AhR [2].

As to `COC[C@@H]1COc2c(N[C@@H]3CCc4[nH]c5ccccc5c4C3)nc(-c3cnc(C)s3)nc2N1CCN(C)C` [Example 35, (7R)-8-[2-(dimethylamino)ethyl]-7-(methoxymethyl)-2-(2-methylthiazol-5-yl)-N-[(3R)-2,3,4,9-tetrahydro-1H-carbazol-3-yl]-6,7-dihydropyrimido[5,4-b][1,4]oxazin-4-amine], the IC50 is 977 nM on AhR [1] and more than 1000 nM on AhR [2].

Consider `COC[C@@H]1COc2c(NCCc3c[nH]c4ccccc34)nc(-c3ccc[nH]c3=O)nc2N1` [Example 26, (R)-3-(4-((2-(1H-indol-3-yl)ethyl)amino)-7-(methoxymethyl)-7,8-dihydro-6H-pyrimido[5,4-b][1,4]oxazin-2-yl)pyridin-2(1H)-one], for which the figures for the IC50 at AhR [1] and on AhR [2] were 0.724 nM and 4.79 nM, respectively.

In the case of `Cn1cccc(-c2nc3c(c(NCCc4c[nH]c5ccccc45)n2)OCCN3)c1=O` [Example 19, 3-[4-[2-(1H-indol-3-yl)ethylamino]-7,8-dihydro-6H-pyrimido[5,4-b][1,4]oxazin-2-yl]-1-methyl-pyridin-2-one], the IC50 is 24.5 nM on AhR [1] and 51.3 nM at AhR [2].

In the case of `O=c1[nH]cccc1-c1nc(NCCc2c[nH]c3ccccc23)c2c(n1)N[C@H](CO)CO2` [Example 27, (R)-3-(4-((2-(1H-indol-3-yl)ethyl)amino)-7-(hydroxymethyl)-7,8-dihydro-6H-pyrimido[5,4-b][1,4]oxazin-2-yl)pyridin-2 (1H)-one], the IC50 on AhR [1] was 2.14 nM; on AhR [2] it was 4.9 nM.

Turning to `Cc1ncc(-c2nc3c(c(NCCc4c[nH]c5ccccc45)n2)OCCN3)s1` [Example 7, N-[2-(1H-indol-3-yl)ethyl]-2-(2-methylthiazol-5-yl)-7,8-dihydro-6H-pyrimido[5,4-b][1,4]oxazin-4-amine], the IC50 on AhR [1] is 9.55 nM; on AhR [2], 9.12 nM.

For the molecule `O=c1[nH]cccc1-c1nc2c(c(N[C@@H]3CCc4[nH]c5ccccc5c4C3)n1)OCCN2` [Example 63, 3-[4-[[(3R)-2,3,4,9-tetrahydro-1H-carbazol-3-yl]amino]-7,8-dihydro-6H-pyrimido[5,4-b][1,4]oxazin-2-yl]-1H-pyridin-2-one], the IC50 on AhR [1] was 158 nM; at AhR [2], 93.3 nM.

Consider `Cc1ncc(-c2nc3c(c(N[C@@H]4CCc5[nH]c6ccccc6c5C4)n2)OCC(CN(C)C)N3)s1` (mixture of isomers) [Example 38, 7-[(dimethylamino)methyl]-2-(2-methylthiazol-5-yl)-N-[(3R)-2,3,4,9-tetrahydro-1H-carbazol-3-yl]-7,8-dihydro-6H-pyrimido[5,4-b][1,4]oxazin-4-amine], for which the values for the IC50 on AhR [1] and on AhR [2] were 89.1 nM and 66.1 nM, respectively.

Regarding `O=c1[nH]cc(F)cc1-c1nc2c(c(NCCc3c[nH]c4ccccc34)n1)OCCN2` [Example 66, 3-(4-((2-(1H-indol-3-yl)ethyl)amino)-7,8-dihydro-6H-pyrimido[5,4-b][1,4]oxazin-2-yl)-5-fluoropyridin-2-ol], the IC50 at AhR [1] is 0.324 nM; on AhR [2], 1.02 nM.
